Reference: patent US5536723A, “S-nitroso derivatives of hydrazinoacetic acids, 1-[(acylthio and (mercapto)-1-oxoalkyl]-1,2,34-Tetrahydroquinoline-2-carboxylic acids and alanyl prolines and isoquinolines” (Brigham & Women's Hospital, priority 1994, dated 1996)
pIC50: −log10 of the molar value.

Key:
[1] = decay of the S-nitroso bond in plasma (PPP); type: in vitro ADME; settings: room temperature
Experimental: (§1) The half-life of the S-nitroso bond of S-nitrosocaptopril in physiologic buffer and in plasma was determined by incubating purified S-nitrosocaptopril in aerated PSS or in PPP, the results of which are shown in FIG. 1.

[2] = system: cGMP (and cAMP) in platelets; assay: cGMP (and cAMP) levels in platelets; type: cell-based; settings: 10^-5 M, one minute
Experimental: Since the postulated mechanism by which the nitrosothiol moiety of S-nitrosocaptopril directly relaxes vascular smooth muscle and attenuates the platelet aggregation response is believed to be through activation of soluble guanylate cyclase, cGMP (and cAMP) levels were measured in vessel ring segments and in platelets incubated with 10^-5 M S-nitrosocaptopril.

[3] = system: bovine femoral artery, contraction to angiotensin I; assay: contraction of the bovine femoral artery to angiotensin I
Experimental: The data are expressed as a percentage of the maximal response to norepinephrine (10^-6 M) and are shown as mean ±SEM in each group (n=7).
(§2) Blood Vessel Preparation. Bovine coronary or femoral arteries were obtained from an abattoir immediately after sacrifice of two- to four-week-old calves. Immediately after removal, the vessel was placed in ice-cold physiologic salt solution (PSS) containing 118.3 mM NaCl, 4.7 mM KCl, 2.5 mM CaCl2, 1.2 mM MgSO4, 1.2 mM KH2 PO4, 25.0 mM NaHCO3, 11.1 mM glucose, and 0.026 mM calcium disodium (ethylenedinitrilo)-tetraacetate. The vessels were then cleaned of adventitial tissue and cut into rings of approximately 5 mm lengths. When called for by the protocol, endothelium was removed from a ring by gently rubbing the luminal surface with a watchmaker's forceps. Vascular rings with intact endothelium were then suspended in organ chambers containing 25 ml of PSS at 37° aerated with 95% O2 -5% CO2. The rings were connected to force transducers (Grass FT03C, Quincy, Mass.) and changes in isometric force recorded continuously (Grass Polygraph Model 79B) over a period of 90 minutes. The optimal length-tension relationship was determined for each ring by observing the response to 10^-6 M norepinephrine after increments in tension of 0.5 gm. The functional integrity of the endothelium was assessed by contracting the vessel with 10^-6 M norepinephrine and then observing the response to 3×10^-7 M acetylcholine chloride.

[4] = system: bovine femoral artery, contraction to angiotensin II; assay: contraction of the bovine femoral artery to angiotensin II
Experimental: The data are expressed as a percentage of the maximal response to norepinephrine (10^-4 M) and are shown as mean ±SEM in each group (n=6).
as §2

[5] = spontaneous hydrolysis (half-life of the S-nitroso bond) in physiologic buffer (PSS); type: physicochemical; settings: 37° C.
Experimental: FIG. 1 depicts a graph showing the spontaneous hydrolysis of S-nitrosocaptopril in PBS. Each point represents the mean ±SEM of four experiments performed in duplicate.
as §1

platelets = assay: platelet aggregation in PRP induced by ADP; type: cell-based, human; settings: Homo sapiens, Platelet, 11 μM ADP
Experimental: FIG. 7 depicts a graph showing the effect of S-nitrosocaptopril on platelet aggregation. Platelets in PRP were incubated with S-nitrosocaptopril over a range of concentrations for three minutes, after which ADP was added to a final concentration of 11 uM. The maximal rate of aggregation was measured and plotted as a percentage of that observed in the absence of S-nitrosocaptopril. Each point represents the mean ±SEM of five experiments each performed in duplicate.
Platelets. Volunteers who had not ingested acetylsalicylic acid for at least ten days provided venous blood within one hour of use. […] Platelet counts were determined using a Coulter counter (Model ZM; Coulter Electronics, Hialeah, Fla.) and adjusted with platelet-poor plasma (PPP) to 1.5×10^8 platelets/ml prior to use.
Platelet Aggregation. Platelet aggregation was monitored using a standard nephelometric technique (Born and Cross, J. Physiol (London) 168:178-195 (1963)) in which PRP was incubated at 37° with a final concentration of 11 μM ADP and stirred at 900 rpm in a Payton dual channel aggregometer (Payton Associates, Inc., Buffalo, N.Y.). Aggregation was quantitated by measuring either the maximal rate of change of light transmittance or the extent of change of light transmittance. […]

## C[C@H](CSN=O)C(=O)N1CCC[C@H]1C(=O)O [S-nitrosocaptopril]
[1]
  estimated half-life of the S-nitroso bond: ~2.5 h
[2]
  cAMP levels, platelets (in words): did not change from basal levels
  cGMP level, platelets: 5.44 pmoles/10^8 platelets
[2]; Platelet, 1 min, read-out: increase of cGMP levels, platelets
  fold induction at 10 µM: 11.3
[3]
  inhibition of contractions to angiotensin I, S-nitrosocaptopril versus captopril (in words): equally inhibited contractions to angiotensin I
  shift in the response to angiotensin I (rounded, discussion): 50 fold
[3]; 10^-6 M, n=6, p<0.001, FIG. 9
  log shift at the ED50 in the response to angiotensin I: 1.74±0.25 log
  shift at the ED50 in the response to angiotensin I: 56 fold
[4]
  shift rightward in the dose response curve to angiotensin II: 5 fold
[4]; 10^-6 M, FIG. 10
  responses to angiotensin II in the presence of S-nitrosocaptopril (in words): significantly less than control
[5]
  estimated half-life of the S-nitroso bond (thiol-bound, mercurous-displaceable nitrite): approximately 2.8 hours
platelets
  pIC50: ~4.10
